This is an account of results in paper PMC5908784, “Extracellular loops 2 and 3 of the calcitonin receptor selectively modify agonist binding and efficacy” (Biochemical Pharmacology, 2018).

Where a chain is given by its changes, count along the chain named. Where a SMILES comes first, the peptide text is derived from it. Bridges are numbered along the chain shown (N, C = ends).

Holding throughout (test): IP1 accumulation
Assay type in all cases: cell-based
Holding throughout (settings): mean ± S.E.M.; for Emax: IP1 maximal response, SEM

The target in one assay is T1, hCTR L368A (Homo sapiens, UniProt P30988, L368A).
T1 construct: c-Myc (N); expressed in transfected cells
T1 sequence (P30988 25-474 L368A): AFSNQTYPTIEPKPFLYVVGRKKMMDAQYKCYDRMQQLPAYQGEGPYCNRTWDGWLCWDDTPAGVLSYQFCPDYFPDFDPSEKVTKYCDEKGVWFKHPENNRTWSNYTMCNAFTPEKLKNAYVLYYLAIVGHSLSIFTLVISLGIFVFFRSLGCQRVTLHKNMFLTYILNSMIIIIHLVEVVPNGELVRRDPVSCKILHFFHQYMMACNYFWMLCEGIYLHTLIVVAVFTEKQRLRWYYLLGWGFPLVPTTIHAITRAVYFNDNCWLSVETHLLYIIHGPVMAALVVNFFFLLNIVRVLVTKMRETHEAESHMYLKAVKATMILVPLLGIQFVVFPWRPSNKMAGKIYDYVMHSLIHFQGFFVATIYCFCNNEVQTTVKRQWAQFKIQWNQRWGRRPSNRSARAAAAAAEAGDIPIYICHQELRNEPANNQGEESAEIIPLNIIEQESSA
The method in brief:
(§1)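 Ligand-induced IP1 (60 min, LiCl) measured by HTRF; normalized to 100 μM ATP response.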

The target of the next assay is T2, hCTR V357A (Homo sapiens, UniProt P30988, V357A).
T2 construct: c-Myc (N); expressed in transfected cells
T2 sequence (P30988 25-474 V357A): T1 sequence (P30988 25-474 L368A) with V333A, A344L
Summed up:
as §1

The next assay has as its target T3, hCTR H296A (Homo sapiens, UniProt P30988, H296A).
T3 construct: c-Myc (N); expressed in transfected cells
T3 sequence (P30988 25-474 H296A): T1 sequence (P30988 25-474 L368A) with H272A, A344L
The method in brief:
as §1

Another assay has as its target T4, hCTR T280A (Homo sapiens, UniProt P30988, T280A).
T4 construct: expressed in transfected cells
T4 sequence (P30988 25-474 T280A): T1 sequence (P30988 25-474 L368A) with T256A, A344L
The method in brief: as §1

A further assay deals with T5, hCTR I279A (Homo sapiens, UniProt P30988, I279A).
T5 construct: expressed in transfected cells
T5 sequence (P30988 25-474 I279A): T1 sequence (P30988 25-474 L368A) with I255A, A344L
The method in brief: as §1

The mark [1] stands for this setting: IP1, CV1-FlpIn cells, 60 min, LiCl.

In the case of `CC[C@H](C)[C@H](NC(=O)[C@H](C)NC(=O)[C@@H](NC(=O)[C@H](CCC(N)=O)NC(=O)[C@@H]1CCCN1C(=O)[C@H](Cc1ccccc1)NC(=O)[C@@H](NC(=O)[C@H](Cc1c[nH]cn1)NC(=O)[C@H](Cc1ccccc1)NC(=O)[C@H](CCCCN)NC(=O)[C@H](CC(N)=O)NC(=O)[C@H](Cc1ccccc1)NC(=O)[C@H](CC(=O)O)NC(=O)[C@H](CCC(N)=O)NC(=O)[C@@H](NC(=O)[C@H](Cc1ccc(O)cc1)NC(=O)[C@@H](NC(=O)CNC(=O)[C@H](CC(C)C)NC(=O)[C@H](CCSC)NC(=O)[C@@H]1CSSC[C@H](N)C(=O)NCC(=O)N[C@@H](CC(N)=O)C(=O)N[C@@H](CC(C)C)C(=O)N[C@@H](CO)C(=O)N[C@@H]([C@@H](C)O)C(=O)N1)[C@@H](C)O)[C@@H](C)O)[C@@H](C)O)[C@@H](C)O)C(=O)NCC(=O)N[C@H](C(=O)NCC(=O)N[C@@H](C)C(=O)N1CCC[C@H]1C(N)=O)C(C)C` [hCT], the Emax came out at 115 ± 7% at hCTR L368A; 50 ± 4% on hCTR V357A; 73 ± 6% on hCTR H296A; 79 ± 6% at hCTR T280A; 79 ± 7% at hCTR I279A.

Turning to `CSCC[C@H](NC(=O)CNC(=O)[C@H](CO)NC(=O)[C@H](Cc1ccccc1)NC(=O)[C@H](CCCNC(=N)N)NC(=O)[C@H](Cc1c[nH]cn1)NC(=O)[C@H](Cc1ccccc1)NC(=O)[C@H](CC(N)=O)NC(=O)[C@H](CC(N)=O)NC(=O)[C@H](CC(C)C)NC(=O)[C@H](CC(N)=O)NC(=O)[C@H](CCCNC(=N)N)NC(=O)[C@H](Cc1c[nH]c2ccccc12)NC(=O)[C@H](Cc1ccc(O)cc1)NC(=O)[C@H](C)NC(=O)[C@H](CO)NC(=O)[C@H](CC(C)C)NC(=O)[C@@H](NC(=O)[C@@H]1CSSC[C@H](N)C(=O)N[C@@H](CO)C(=O)N[C@@H](CC(N)=O)C(=O)N[C@@H](CC(C)C)C(=O)N[C@@H](CO)C(=O)N[C@@H]([C@@H](C)O)C(=O)N1)C(C)C)C(=O)NCC(=O)N[C@@H](Cc1ccccc1)C(=O)NCC(=O)N1CCC[C@H]1C(=O)N[C@@H](CCC(=O)O)C(=O)N[C@H](C(=O)N1CCC[C@H]1C(N)=O)[C@@H](C)O` [pCT] (H-CSNLSTCVLSAYWRNLNNFHRFSGMGFGPETP-NH2; disulfide 1-7), the concentration for a half-maximal effect (EC50) was 10 nM on hCTR L368A (setting [1]); 15.5 nM on hCTR V357A (setting [1]); 4.47 nM at hCTR H296A (setting [1]); 2.45 nM at hCTR T280A (setting [1]); 6.61 nM at hCTR I279A (setting [1]). The Emax at hCTR L368A was 94 ± 9%; on hCTR V357A, 48 ± 4%; at hCTR H296A it was 101 ± 7%; at hCTR T280A it was 100 ± 6%; on hCTR I279A, 116 ± 10%.

Take `CC(C)C[C@H](NC(=O)[C@H](CCCCN)NC(=O)CNC(=O)[C@H](CC(C)C)NC(=O)[C@@H](NC(=O)[C@@H]1CSSC[C@H](N)C(=O)N[C@@H](CO)C(=O)N[C@@H](CC(N)=O)C(=O)N[C@@H](CC(C)C)C(=O)N[C@@H](CO)C(=O)N[C@@H]([C@@H](C)O)C(=O)N1)C(C)C)C(=O)N[C@@H](CO)C(=O)N[C@@H](CCC(N)=O)C(=O)N[C@@H](CCC(=O)O)C(=O)N[C@@H](CC(C)C)C(=O)N[C@@H](Cc1c[nH]cn1)C(=O)N[C@@H](CCCCN)C(=O)N[C@@H](CC(C)C)C(=O)N[C@@H](CCC(N)=O)C(=O)N[C@H](C(=O)N[C@@H](Cc1ccc(O)cc1)C(=O)N1CCC[C@H]1C(=O)N[C@@H](CCCNC(=N)N)C(=O)N[C@H](C(=O)N[C@@H](CC(N)=O)C(=O)N[C@H](C(=O)NCC(=O)N[C@@H](CO)C(=O)NCC(=O)N[C@H](C(=O)N1CCC[C@H]1C(N)=O)[C@@H](C)O)[C@@H](C)O)[C@@H](C)O)[C@@H](C)O` [sCT]: the maximal response (Emax) on hCTR L368A was 97 ± 4%; at hCTR V357A, 39 ± 3%; at hCTR H296A, 101 ± 5%; at hCTR T280A it was 119 ± 5%; at hCTR I279A, 97 ± 7%.

For orientation: Emax means the maximal effect, on the per cent scale that the assay sets. By EC50 is commonly meant the concentration needed to bring the measured effect to its halfway point.
